Results reported in publication PMC7802229, “Alkaloid and benzopyran compounds of Melicope latifolia fruit exhibit anti-hepatitis C virus activities” (BMC Complementary Medicine and Therapies, 2021).
In brackets after ≈: the same amount, converted by molar mass. Entries after “also recorded” stand apart in the source; their conditions may differ. Read-outs that look alike come from different tables or passages of the source.

Columns and labels:
HCV JFH1a = experiment: Antiviral activity assay (HCV infection of Huh7it-1 cells, titre by immunostaining); format: cell-based, hepatitis C virus (genotype 2a); details: for IC50: Hepatitis C virus, read-out: IC50 (anti-HCV activity); for Anti-HCV activity in words: highest concentration examined 50 μg/ml
Experimental: Hepatocyte cells of Huh7it-1 [18] were cultivated in DMEM-Dulbeco’s Modiffied Eagle Medium (GIBCO Invitrogen). The medium was supplemented with 10% Fetal Bovine Serum (FBS, GIBCO-Invitrogen), 0.15 mg/ml kanamycin solution (SIGMA) and 1x Non-Essential Amino Acids (NEAA, GIBCO-Invitrogen). The cell culture was incubated in 5% CO2 at 37 °C. HCV JFH1a was propagated in Huh7it-1 suspended in 4 ml JFH1 suspension and 4 ml DMEM and was incubated at 37 °C in 5% CO2 for 4 h. The suspension was divided into eight flasks and the supernatant was harvested on the third day. The supernatant was concentrated and examined for its viral titration and stored at − 80 °C [10].
The hepatocyte cells of Huh7it-1 were seeded on a 48 well plate with a cell density of 5.4 × 10^4 and incubated for 24 h. […] The supernatant was removed and washed with medium and placed back into solutions containing the same concentrations of extract. The cultures were then incubated for 48 h and the supernatant was taken to examine the titer infection of the sample by immunostaining.
(§1) Viral titration was performed by serially diluting the culture supernatant in DMEM medium and inoculating onto Huh7it-1 cells. After incubation for 41 h, the cells were fixed by 3.7% formaldehyde and permeabilized with 0.5% triton X-100 for 10 min. First antibody (HCV infected serum patient) was used in 1% bovine serum albumin (BSA) /2%BlockIce/ phosphate buffer saline (PBS) with a 300x dilution then incubated for 60 min. Second antibody (HRP-Goat anti human) was used in 1%BSA/2%BlockIce/PBS with a 400x dilution (50 μl/well) and then incubated for 60 min at room temperature. To visualize the infectious foci, 3,3′-diaminobenzidine (DAB) staining (DAB Thermo Scientific, USA) was used for 15 min until a brown color was observed. SPSS probit was used to calculate inhibition concentration 50% (IC50) values.

Cytotoxicity assay (MTT) = format: cell-based; details: human, Huh7it-1 cells, mean ± SD of triplicate
Experimental: The cytotoxicity analysis was assessed using MTT assay 3-(4,5-Dimethylthiazol-2-Yl)-2,5-Diphenyltetrazolium Bromide. Solutions with extract concentrations of 1000, 400, 100, 50, 10, 1and […] were added onto Huh7it-1 cells in 96 well plates. After 46 h incubation, the medium was removed and 150 μl/well of 10% MTT was added then incubated for 4 h. The purple precipitates were then dissolved in dimethyl sulfoxide (DMSO). The purple solution was measured for UV absorbance using a microplate reader at 560 nm. SPSS probit was used to calculate the cytotoxic concentration 50% (CC50).

[1] = system: murine leukemia P-388 cells; design: method as in PMID 34498963; details: cited from earlier work
[2] = system: HCV life cycle (entry / post-entry); experiment: Time-of-addition experiment; format: cell-based; details: 25 μg/ml; for inhibition at 25 µg/mL: Hepatitis C virus, mean ± SD of triplicate; for Mode of action: time of addition
Experimental: A time addition experiment was performed to analyze the effect of the extract on the HCV life cycle. Entry inhibition was conducted by treated cells with extracts during viral inoculation to evaluate the inhibition in binding, entry and endocytosis. Post entry inhibition was conducted by treating cells with the extracts after viral inoculation. Supernatants were collected and viral titration and immunostaining was used to assess the mode of action.
as §1

HCV NS3 protein = experiment: Immunoblotting of HCV NS3 protein in infected Huh7it cells; format: cell-based, hepatitis C virus; details: Huh7it-HCV infected cells MOI 0.5, various concentrations, 48 h
Experimental: Huh7it-1 cells were lysed with Ripa buffer and the amount of protein was checked using a bichincronic acid (BCA) assay kit. The proteins were separated in (sodium dodecyl sulfate polyacrylamide gel electrophoresis (SDS-PAGE) gel and transferred onto a PVDF membrane (Millipore, Bed-ford, MA, USA). Five percent skimmed milk was added to block non-specific binding and incubated for 60 min. First antibody, HCV NS3-specific mouse monoclonal antibody (clone H23; Abcam, Cambridge, MA, USA) and glyceraldehyde-3-phosphate dehydrogenase (GAPDH) antibody (MBL) was added and incubated for 1 h. The 0.05% PBST was used for membrane washing. Second antibody, HRP-conjugated goat anti mouse immunoglobulin (MBL) was incubated for 1 h and the respective protein was visualized using Clarity Western ECL substrate (Biorad). The chemical luminescence was detected using ImageQuant LAS 4000 (GE healthcare).
Culture of Huh7it-HCV infected cells (MOI = 0.5) was treated with various concentration of compounds. After 48 h of incubation, cells were subjected to western blot analysis using monoclonal antibody against HCV NS3 protein. GAPDH served as an internal control

brine shrimp larvae = system: brine shrimp larvae; design: method as in PMID 19483341; details: cited from earlier work
[3] = system: N-formylmethionylleucylphenylalanine-induced superoxide production; design: method as in PMID 17822293; details: cited from earlier work
[4] = Huh7it-1 cells, HCV JFH1a MOI 0.1, 48 h, mean ± SD of triplicate
[5] = read-out: % Inhibition During inoculation
[6] = read-out: % Inhibition During+Post inoculation
[7] = read-out: % Inhibition Post inoculation

## COc1cc(O)c(C(C)=O)c2c1C=CC(C)(C)O2 [Alloevodionol]
HCV JFH1a; [4]
  IC50: 41.1 ± 3.1 µg/mL (≈ 166 µM)
HCV JFH1a; Huh7it-1 cells
  Anti-HCV activity in words: less active; also recorded: moderate inhibition
Cytotoxicity assay (MTT)
  CC50 at 46 h: > 1000 µg/mL

## COc1cc2oc(=O)ccc2c2c1C=CC(C)(C)O2 [Alloxanthoxyletin]
HCV JFH1a; [4]
  IC50: 21.7 ± 2.2 µg/mL (≈ 84.1 µM)
Cytotoxicity assay (MTT)
  CC50 at 46 h: 93 ± 3 µg/mL (≈ 360 µM)

## COc1c2ccoc2c(OC)c2oc(=O)ccc12 [Isopimpinellin]
HCV JFH1a; 48 h
  IC50: > 50 µg/mL
HCV JFH1a; Huh7it-1 cells
  Anti-HCV activity in words: less active; also recorded: did not reveal anti-HCV activities
Cytotoxicity assay (MTT)
  CC50 at 46 h: > 1000 µg/mL

## COc1cc2c(c(OC)c1C(C)=O)C=CC(C)(C)O2 [Methylevodionol]
HCV JFH1a; 48 h
  IC50: > 50 µg/mL
HCV JFH1a; Huh7it-1 cells
  Anti-HCV activity in words: less active; also recorded: did not reveal anti-HCV activities
Cytotoxicity assay (MTT)
  CC50 at 46 h: 310 ± 2.5 µg/mL (≈ 1180 µM)
[1]
  IC50 against murine leukemia P-388 cells: 11.98 µg/mL (≈ 45.7 µM)

## Cn1c(=O)c2c(c3ccccc31)OC(C)(C)C=C2 [N-methylflindersine]
HCV JFH1a; [4]
  IC50: 3.8 ± 2.7 µg/mL (≈ 15.7 µM)
Cytotoxicity assay (MTT)
  CC50 at 46 h: 97 ± 3.3 µg/mL (≈ 402 µM)
[2]; [5]
  inhibition at 25 µg/mL: 7.7 ± 1.8%
[2]; [6]
  inhibition at 25 µg/mL: 83 ± 0.8%
[2]; [7]
  inhibition at 25 µg/mL: 84.1 ± 2.9%
[2]
  Mode of action: inhibit HCV in the post-entry step; also recorded: Post-entry inhibition
HCV NS3 protein
  HCV NS3 protein level (western blot): HCV NS3 protein reduction
HCV NS3 protein; listed as N-methylflidersine
  HCV NS3 protein level (western blot): decreased level of HCV NS3 protein expression
HCV NS3 protein; listed as N-methylflindersin
  HCV NS3 protein level (western blot): decreased HCV NS3 protein level
Brine shrimp larvae
  LD50 towards brine shrimp larvae: 1.39 µg/mL
[3]
  IC50: < 12 µM
[1]
  IC50 against murine leukemia P-388 cells: 21.06 µg/mL (≈ 87.3 µM)

## COc1c2c(c3c(c1C(C)=O)OC(C)(C)C=C3)OC(C)(C)C=C2 [O-methyloktadrenolon]
HCV JFH1a; [4]
  IC50: 10.9 ± 1.2 µg/mL (≈ 34.7 µM)
Cytotoxicity assay (MTT)
  CC50 at 46 h: 63 ± 2.3 µg/mL (≈ 200 µM)
[2]; [5]
  inhibition at 25 µg/mL: 9.1 ± 8.5%
[2]; [6]
  inhibition at 25 µg/mL: 98.4 ± 0.4%
[2]; [7]
  inhibition at 25 µg/mL: 98 ± 0.9%
[2]
  Mode of action: inhibit HCV in the post-entry step; also recorded: Post-entry inhibition
HCV NS3 protein
  HCV NS3 protein level (western blot): decreased HCV NS3 protein level
